Organism: Rattus norvegicus
Test: Open TG-GATES - Regimen: Daily Repeat
Format: toxicity, organism-based, Sprague-Dawley
Set-up: regimen Daily Repeat, gender Male, age 6 weeks
Conditions: in vivo, po, 100 mg/kg, route gavage, dose level High; for APTT / Bas / Eos / Fbg / Hb / Ht / Lym / MCH / MCHC / MCV / Mono / Neu / PT / Plat / RBC / Ret / WBC: tissue Blood; for KIDNEY_L / KIDNEY_R / KIDNEY_TOTAL: tissue Kidney; for LIVER: tissue Liver; for A/G / ALP / ALT / AST / BUN / CRE / Ca / Cl / DBIL / GLC / IP / K / LDH / Na / PL / RALB / TBIL / TC / TG / TP / gamma-GTP: tissue Plasma

Structure (SMILES): OCCOCCN1CCN(C(c2ccccc2)c2ccc(Cl)cc2)CC1 (configuration not stated) [HYDROXYZINE]
- TERMINAL_BW (72 h, time 3 day): 215.1 g
- APTT (72 h, time 3 day): 17.1 s
- Bas (72 h, time 3 day): 0%
- Eos (72 h, time 3 day): 0.8%
- Fbg (72 h, time 3 day): 297 mg/dL
- Hb (72 h, time 3 day): 13.6 g/dL
- Ht (72 h, time 3 day): 40.5%
- Lym (72 h, time 3 day): 73.4%
- MCH (72 h, time 3 day): 20.9 pg
- MCHC (72 h, time 3 day): 33.5%
- MCV (72 h, time 3 day): 62.5 fL
- Mono (72 h, time 3 day): 3.2%
- Neu (72 h, time 3 day): 21.8%
- PT (72 h, time 3 day): 15.7 s
- Plat (72 h, time 3 day): 128.8 x10_4/uL
- RBC (72 h, time 3 day): 648.2 x10_4/ul
- Ret (72 h, time 3 day): 5.3%
- WBC (72 h, time 3 day): 97.2 x10_2/uL
- KIDNEY_L (72 h, time 3 day): 1 g
- KIDNEY_R (72 h, time 3 day): 1 g
- KIDNEY_TOTAL (72 h, time 3 day): 2 g
- LIVER (72 h, time 3 day): 11.2 g
- A/G (72 h, time 3 day): 0.8
- ALP (72 h, time 3 day): 2293.8 IU/L
- ALT (72 h, time 3 day): 42.6 IU/L
- AST (72 h, time 3 day): 72.8 IU/L
- BUN (72 h, time 3 day): 17.6 mg/dL
- CRE (72 h, time 3 day): 0.2 mg/dL
- Ca (72 h, time 3 day): 10.9 mg/dL
- Cl (72 h, time 3 day): 104.8 meq/L
- DBIL (72 h, time 3 day): 0.016 mg/dL
- GLC (72 h, time 3 day): 170.8 mg/dL
- IP (72 h, time 3 day): 7.8 mg/dL
- K (72 h, time 3 day): 3.9 meq/L
- LDH (72 h, time 3 day): 56.2 IU/L
- Na (72 h, time 3 day): 142.6 meq/L
- PL (72 h, time 3 day): 126.2 mg/dL
- RALB (72 h, time 3 day): 2.6 g/dL
- TBIL (72 h, time 3 day): 0.05 mg/dL
- TC (72 h, time 3 day): 67.8 mg/dL
- TG (72 h, time 3 day): 62.6 mg/dL
- TP (72 h, time 3 day): 5.6 g/dL
- gamma-GTP (72 h, time 3 day): 1 IU/L
- TERMINAL_BW ([…], time 7 day): 246 g
- TERMINAL_BW ([…], time 14 day): 300.3 g
- TERMINAL_BW ([…], time 28 day): 378.6 g
- APTT ([…], time 7 day): 18 s
- Bas ([…], time 7 day): 0%
- Eos ([…], time 7 day): 0.8%
- Fbg ([…], time 7 day): 297 mg/dL
- Hb ([…], time 7 day): 13.6 g/dL
- Ht ([…], time 7 day): 40.3%
- Lym ([…], time 7 day): 81%
- MCH ([…], time 7 day): 21 pg
- MCHC ([…], time 7 day): 33.7%
- MCV ([…], time 7 day): 62.3 fL
- Mono ([…], time 7 day): 2.2%
- Neu ([…], time 7 day): 15.4%
- PT ([…], time 7 day): 15.5 s
- Plat ([…], time 7 day): 109.3 x10_4/uL
- RBC ([…], time 7 day): 647.2 x10_4/ul
- Ret ([…], time 7 day): 4.6%
- WBC ([…], time 7 day): 79.7 x10_2/uL
- APTT ([…], time 14 day): 18.5 s
- Bas ([…], time 14 day): 0.4%
- Eos ([…], time 14 day): 1%
- Fbg ([…], time 14 day): 300.4 mg/dL
- Hb ([…], time 14 day): 13.7 g/dL
- Ht ([…], time 14 day): 40.2%
- Lym ([…], time 14 day): 78%
- MCH ([…], time 14 day): 20 pg
- MCHC ([…], time 14 day): 34.2%
- MCV ([…], time 14 day): 58.5 fL
- Mono ([…], time 14 day): 3%
- Neu ([…], time 14 day): 16.6%
- PT ([…], time 14 day): 16.2 s
- Plat ([…], time 14 day): 124.9 x10_4/uL
- RBC ([…], time 14 day): 686.4 x10_4/ul
- Ret ([…], time 14 day): 5.2%
- WBC ([…], time 14 day): 128.4 x10_2/uL
- APTT ([…], time 28 day): 22.4 s
- Bas ([…], time 28 day): 0.4%
- Eos ([…], time 28 day): 0.8%
- Fbg ([…], time 28 day): 290.2 mg/dL
- Hb ([…], time 28 day): 14.7 g/dL
- Ht ([…], time 28 day): 42.3%
- Lym ([…], time 28 day): 79.6%
- MCH ([…], time 28 day): 18.5 pg
- MCHC ([…], time 28 day): 34.8%
- MCV ([…], time 28 day): 53.1 fL
- Mono ([…], time 28 day): 2.4%
- Neu ([…], time 28 day): 16.8%
- PT ([…], time 28 day): 15.7 s
- Plat ([…], time 28 day): 109.6 x10_4/uL
- RBC ([…], time 28 day): 796.6 x10_4/ul
- Ret ([…], time 28 day): 2.9%
- WBC ([…], time 28 day): 135.7 x10_2/uL
- KIDNEY_L ([…], time 7 day): 1.1 g
- KIDNEY_R ([…], time 7 day): 1.1 g
- KIDNEY_TOTAL ([…], time 7 day): 2.2 g
- KIDNEY_L ([…], time 14 day): 1.3 g
- KIDNEY_R ([…], time 14 day): 1.4 g
- KIDNEY_TOTAL ([…], time 14 day): 2.7 g
- KIDNEY_L ([…], time 28 day): 1.6 g
- KIDNEY_R ([…], time 28 day): 1.5 g
- KIDNEY_TOTAL ([…], time 28 day): 3.2 g
- LIVER ([…], time 7 day): 15.2 g
- LIVER ([…], time 14 day): 18.1 g
- LIVER ([…], time 28 day): 21.7 g
- A/G ([…], time 7 day): 0.8
- ALP ([…], time 7 day): 2036.8 IU/L
- ALT ([…], time 7 day): 34 IU/L
- AST ([…], time 7 day): 61.4 IU/L
- BUN ([…], time 7 day): 18 mg/dL
- CRE ([…], time 7 day): 0.2 mg/dL
- Ca ([…], time 7 day): 11 mg/dL
- Cl ([…], time 7 day): 104.6 meq/L
- DBIL ([…], time 7 day): 0.018 mg/dL
- GLC ([…], time 7 day): 186 mg/dL
- IP ([…], time 7 day): 7.9 mg/dL
- K ([…], time 7 day): 4.4 meq/L
- LDH ([…], time 7 day): 62 IU/L
- Na ([…], time 7 day): 141.6 meq/L
- PL ([…], time 7 day): 138.2 mg/dL
- RALB ([…], time 7 day): 2.6 g/dL
- TBIL ([…], time 7 day): 0.046 mg/dL
- TC ([…], time 7 day): 76.8 mg/dL
- TG ([…], time 7 day): 55 mg/dL
- TP ([…], time 7 day): 5.8 g/dL
- gamma-GTP ([…], time 7 day): 0.8 IU/L
- A/G ([…], time 14 day): 0.8
- ALP ([…], time 14 day): 2097.8 IU/L
- ALT ([…], time 14 day): 39.6 IU/L
- AST ([…], time 14 day): 66 IU/L
- BUN ([…], time 14 day): 17.2 mg/dL
- CRE ([…], time 14 day): 0.2 mg/dL
- Ca ([…], time 14 day): 10.7 mg/dL
- Cl ([…], time 14 day): 102.8 meq/L
- DBIL ([…], time 14 day): 0.018 mg/dL
- GLC ([…], time 14 day): 193 mg/dL
- IP ([…], time 14 day): 7.6 mg/dL
- K ([…], time 14 day): 4 meq/L
- LDH ([…], time 14 day): 94.4 IU/L
- Na ([…], time 14 day): 141.4 meq/L
- PL ([…], time 14 day): 141.4 mg/dL
- RALB ([…], time 14 day): 2.7 g/dL
- TBIL ([…], time 14 day): 0.044 mg/dL
- TC ([…], time 14 day): 75 mg/dL
- TG ([…], time 14 day): 62.4 mg/dL
- TP ([…], time 14 day): 5.9 g/dL
- gamma-GTP ([…], time 14 day): 0.8 IU/L
- A/G ([…], time 28 day): 0.8
- ALP ([…], time 28 day): 1321.8 IU/L
- ALT ([…], time 28 day): 33.2 IU/L
- AST ([…], time 28 day): 58.8 IU/L
- BUN ([…], time 28 day): 17.8 mg/dL
- CRE ([…], time 28 day): 0.2 mg/dL
- Ca ([…], time 28 day): 10.9 mg/dL
- Cl ([…], time 28 day): 103.6 meq/L
- DBIL ([…], time 28 day): 0.012 mg/dL
- GLC ([…], time 28 day): 193.8 mg/dL
- IP ([…], time 28 day): 7 mg/dL
- K ([…], time 28 day): 4.5 meq/L
- LDH ([…], time 28 day): 81.8 IU/L
- Na ([…], time 28 day): 141.8 meq/L
- PL ([…], time 28 day): 117.6 mg/dL
- RALB ([…], time 28 day): 2.9 g/dL
- TBIL ([…], time 28 day): 0.038 mg/dL
- TC ([…], time 28 day): 64 mg/dL
- TG ([…], time 28 day): 41.6 mg/dL
- TP ([…], time 28 day): 6.4 g/dL
- gamma-GTP ([…], time 28 day): 1 IU/L
